# In publication PMC9084191 (European Journal of Pharmaceutics and Biopharmaceutics, 2022):
# Read-outs that look alike come from different tables or passages of the source.
# Columns and labels:
# [1] = Stability on storage at 40 °C/75% RH (PXRD, 19F NMR, HPLC); assay type: physicochemical; conditions: 2 weeks, 40 °C/RH 75%; for Drug content reduction (%): HPLC
# Experimental: The salt form of DLM was prepared using a Buchi Rotavapor-R (Newcastle, Delaware). DLM free base and sulfonic acid were added at drug-acid 1:1 molar ratio in a mixture of DCM and acetone (1:1 v/v) where alcoholic solvents were avoided to prevent the formation of alkyl esters during salt synthesis. Solvents were removed by rotary evaporation at 40 °C. DLM salts were then kept under vacuum at room temperature overnight to remove residual solvents. DLM salts were characterized by ^1H-nuclear magnetic resonance (NMR) spectroscopy to confirm salt formation. Their physical and chemical stability were monitored following storage at 40 °C/75% relative humidity (RH) by measuring several physicochemical properties, including crystallinity (by powder X-ray diffraction, PXRD), impurities (by ^19F NMR spectroscopy), drug content (by HPLC as described above) and hygroscopicity (using dynamic vapor sorption analysis).
# (§1) Crystallinity of ASDs and DLM salts was evaluated using a Rigaku Smartlab diffractometer (Rigaku Americas, The Woodlands, TX) equipped with a Cu–Kα radiation source and a D/tex ultradetector. Samples were added to glass sample holders, and powder patterns were recorded over the range of 4-40° 2θ at a scanning speed of 4° per min and a 0.02° step size with the voltage and current set to 40 kV and 44 mA, respectively.
# Salt formation was confirmed by ^1H nuclear magnetic resonance (NMR) spectroscopy and impurities in DLM salts following preparation and storage were detected by ^19F NMR spectroscopy. Samples were dissolved in dimethyl sulfoxide-d6 (Cambridge Isotope Laboratories, Inc., Andover, MA) at a concentration of 20 mg/mL. All NMR spectra were acquired on a Bruker DRX 500 MHz spectrometer (Karlsruhe, Germany) equipped with a BBFO z-gradient probe operating at room temperature. For ^1H NMR spectra, the spectral sweep width was 20 ppm, acquisition time was 1.6 sec and number of scans was 16. For ^19F NMR spectroscopy, ^1H was decoupled during acquisition, spectral sweep width was 50 ppm, acquisition time was 1.4 sec and the number of scans was 64.
# Water sorption analysis = assay type: physicochemical; conditions: for Water sorption (%) at 95 % RH: 37 °C
# Experimental: Water sorption profiles of DLM salts and ASDs were measured by using a SGA-100 symmetrical gravimetric analyzer (TA Instrument, New Castle, DE) at 37 °C. Samples (10–20 mg) were flushed with dry air for 3 h. After drying, samples were exposed to increasing relative humidity (RH) steps from 5 to 95% with a maximum step time of 180 min. Vapor sorption profiles are recorded as the equilibrium value (the weight change was below 0.001%/min over 5 min) at each RH.
# [2] = Glass transition temperature by DSC; assay type: physicochemical; conditions: for Tg: neat drug, salt or polymer
# Experimental: The glass transition temperatures (Tg) of drug, polymers and ASD samples were determined using a TA Q2000 DSC equipped with an RCS90 refrigeration unit (TA Instruments, New Castle, DE). The temperature calibration was performed using indium and tin, while enthalpy calibration was conducted with indium. Samples (5–10 mg) were added to aluminum pans with a pinhole lid (Tzero pan, TA Instrument, DE). […] The heating and cooling cycle was repeated 3 times to remove residual solvent and thermal history, and the last cycle was used for analysis.
# [3] = Release testing of tablets, single-stage PBS pH 6.5; assay type: physicochemical; conditions: PBS pH 6.5, single stage
# Experimental: (§2) The ASDs were mixed with excipients and compressed to obtain tablets containing 5 mg DLM with respect to the free base. All dissolution studies of DLM tablets were conducted in triplicate in single-stage or two-stage pH-shift condition using a Hanson Vision G2 Classic 6 dissolution system (Teledyne Hanson Research, Chatsworth, CA). For single-stage testing, the tablets containing the ASDs were added to 50 mL PBS, pH 6.5 and monitored for 1 h at 37° C, with 150 rpm of stirring. For pH-shift experiments, release in the acidic stage was conducted in 45 mL HCl solution pH 1.6 for 1 h, followed by addition of 5 mL concentrated PBS (pH 7.3) to adjust the pH of solution to pH 6.5 and drug release was monitored for an additional 30 min. An in situ Rainbow fiber optic ultraviolet spectrometer coupled with 10 mm fiber optic dip probes (Pion, Billerica, MA, USA) was used to monitor drug concentration over time. Second derivative analysis was applied to correct the spectral baseline and a calibration curve of area under curve (AUC) of the range 330–350 nm was used to calculate the drug concentration.
# [4] = Release testing of tablets, two-stage pH-shift (pH 1.6 to 6.5); assay type: physicochemical
# Experimental: as §2
# [5] = cited from earlier work
# [6] = cited from earlier work; remark: listed apart in the source
# [7] = design: method as in PMID 24881816; conditions: predicted log P calculated by ALOGPS; cited from earlier work
# [8] = Dynamic light scattering of DLM-rich nanodroplets; assay type: physicochemical; conditions: HPMCP and HPMCAS solutions 300 µg/mL, drug 50 µg/mL, PBS pH 6.5, 3-h period
# Experimental: The size of DLM-rich droplets formed above the amorphous solubility was measured by dynamic light scattering (DLS) using a Nano-Zetasizer (Nano-ZS, Malvern Instruments, Westborough, MA). […] To evaluate the impact of polymers on nanodroplet stability, polymers were pre-dissolved in solution at a concentration of 300 μg/mL and drug was introduced at 50 μg/mL. Samples were monitored for up to 3 h after liquid–liquid phase separation was initiated.
# [9] = design: method as in earlier work; conditions: predicted pKa; cited from earlier work
# [10] = Nucleation induction time measurement; assay type: physicochemical; conditions: for Induction time (tind): 37 °C, no polymer
# [11] = Crystallinity by PXRD following preparation; assay type: physicochemical; conditions: immediately following preparation
# Experimental: as §1
# [12] = value of the strongest acidity, ref [3, 4] of supplement
# [13] = value of the strongest acidity, ref [2] of supplement
compound,measurement,setting,value
C[C@]1(COc2ccc(N3CCC(Oc4ccc(OC(F)(F)F)cc4)CC3)cc2)Cn2cc([N+](=O)[O-])nc2O1.O=S(=O)(O)c1ccc(Cl)cc1 [Closylate],Impurity (19F NMR) (%),[1],2.3%
same,Liquefaction,[1],liquefaction
same,Drug content reduction (%),[1],3.1%
same,Water sorption (%) at 95 % RH,Water sorption analysis,5.8%
same,Tg,[2],90.1 °C
C[C@]1(COc2ccc(N3CCC(Oc4ccc(OC(F)(F)F)cc4)CC3)cc2)Cn2cc([N+](=O)[O-])nc2O1.C[C@]1(COc2ccc(N3CCC(Oc4ccc(OC(F)(F)F)cc4)CC3)cc2)Cn2cc([N+](=O)[O-])nc2O1.O=S(=O)(O)CCS(=O)(=O)O [Edisylate (2:1)],Impurity (19F NMR) (%),[1],1.0%
same,Drug content reduction (%),[1],0.8%
same,Water sorption (%) at 95 % RH,Water sorption analysis,11.6%
same,Drug release (in words),[3],no release
same,Release in acidic medium (in words),[4]; acid stage of pH-shift experiment,slightly higher than that observed for DLM free base
same,Tg,[2],117.8 °C
"O=S(=O)(O)c1cccc2c(S(=O)(=O)O)cccc12 [Naphthalenedisulfonic, 1,5-naphthalenedisulfonic acid]",pKa,[5]; [12],"0.17 [3, 4]"
"O.O.O=S(=O)(O)CCS(=O)(=O)O [Ethanedisulfonic, 1,2-Ethanedisulfonic acid dihydrate]",pKa,[5]; [12],"-2.1 [3, 4]"
"O=S(=O)(O)c1ccccc1 [Benzenesulfonic, benzenesulfonic acid]",pKa,[5]; [13],-2.8
C[C@]1(COc2ccc(N3CCC(Oc4ccc(OC(F)(F)F)cc4)CC3)cc2)Cn2cc([N+](=O)[O-])nc2O1 [Delamanid],Log P,[6],5.67
same,Log P,[7],6.14
same,Hygroscopicity (in words),Water sorption analysis,non-hygroscopic
same,Nanodroplet size change,[8],no notable change
same,Drug release (in words),[3],no release was detected
same,pKa,[9],3.99
same,Drug concentration released in acid stage,"[4]; pH-shift experiment, low pH (1.6) stage",around 20 µg/mL
same,Induction time,"[10]; PBS pH 6.5, Eud-L100 300 µg/mL",10.2 ± 3.1 min
same,Induction time,"[10]; PBS pH 6.5, HPMC 300 µg/mL",about 50 min
same,Induction time,"[10]; PBS pH 6.5, HPMCAS 300 µg/mL",more than 1000 min
same,Induction time,"[10]; PBS pH 6.5, HPMCP 300 µg/mL",more than 1000 min
same,Induction time,"[10]; PBS pH 6.5, PVPVA 300 µg/mL",more than 1000 min
same,Induction time,"[10]; in presence of PVPVA, HPMCAS or HPMCP",> 720 min
same,Glass forming ability class,[2]; cooling from the melt at 50 °C/min,Class I
same,Tg,[2],43.3 °C
same,Tg,[2]; listed as delamanid free base,43.3 ± 0.4 °C
same,pKa,[5],4.3
"CCS(=O)(=O)O [Ethanesulfonic, Ethanesulfonic acid]",pKa,[5]; [13],-1.68
same,pKa,"[5]; value of the strongest acidity, ref [3] of supplement",-2.05
CC1(COc2ccc(N3CCC(Oc4ccc(OC(F)(F)F)cc4)CC3)cc2)Cn2cc([N+](=O)[O-])nc2O1.CC1(COc2ccc(N3CCC(Oc4ccc(OC(F)(F)F)cc4)CC3)cc2)Cn2cc([N+](=O)[O-])nc2O1.O=S(=O)(O)c1cccc2c(S(=O)(=O)O)cccc12 (stereo not shown) [Napadisylate (2:1)],Crystallinity by PXRD (in words),[11],partial crystallization
Tosylate,Impurity (19F NMR) (%),[1],1.0%
same,Liquefaction,[1],liquefaction
same,Drug content reduction (%),[1],2.1%
same,Water sorption (%) at 95 % RH,Water sorption analysis,6.1%
same,Induction time (tind),"[10]; FaSSGF (pH 1.6), at amorphous solubility",1.0 min
same,Induction time (tind),"[10]; PBS pH 6.5, at amorphous solubility",18.5 min
same,Tg,[2],90.2 °C
"CC1(C)C2CC[C@@]1(CS(=O)(=O)O)C(=O)C2 [Camphorsulfonic, (1S)-(+)-10-camphorsulfonic acid]",pKa,"[5]; value of the strongest acidity, ref [6] of supplement",1.2 [6]
CC1(C)[C@@H]2CC[C@@]1(CS(=O)(=O)O)C(=O)C2.C[C@]1(COc2ccc(N3CCC(Oc4ccc(OC(F)(F)F)cc4)CC3)cc2)Cn2cc([N+](=O)[O-])nc2O1 [Camsylate],Impurity (19F NMR) (%),[1],2.0%
same,Drug content reduction (%),[1],6.1%
same,Water sorption (%) at 95 % RH,Water sorption analysis,8.1%
same,Tg,[2],97.9 °C
C[C@]1(COc2ccc(N3CCC(Oc4ccc(OC(F)(F)F)cc4)CC3)cc2)Cn2cc([N+](=O)[O-])nc2O1.O=S(=O)(O)CCS(=O)(=O)O [DLM-edisylate (1:1)],Water sorption (%) at 95 % RH,Water sorption analysis,59%
same,Tg,[2],53.9 °C
"O=S(=O)(O)c1ccc(Cl)cc1 [Chlorobenzenesulfonic, 4-chlorobenzenesulfonic acid]",pKa,"[5]; value of the strongest acidity, ref [5] of supplement",-0.61 [5]
